Assay results reported in paper PMC4672351, “Drug-Drug Interaction Potentials of Tyrosine Kinase Inhibitors via Inhibition of UDP-Glucuronosyltransferases” (Scientific Reports, 2015).
Several values for one entry are separate records, joined by “and”; a condition that tells them apart may be missing. Equal entries are not always repeated.

How the values were obtained:
UGT1A4 = target: T1, UGT1A4 (Homo sapiens, UniProt P22310); assay: Prediction of DDI risk (AUCi/AUC) from in vitro data, UGT1A4 substrates; design: purchased BD Gentest (Woburn, MA); host or cells: baculovirus-infected insect cells; conditions: fm is 1
T1 sequence (P22310 29-534): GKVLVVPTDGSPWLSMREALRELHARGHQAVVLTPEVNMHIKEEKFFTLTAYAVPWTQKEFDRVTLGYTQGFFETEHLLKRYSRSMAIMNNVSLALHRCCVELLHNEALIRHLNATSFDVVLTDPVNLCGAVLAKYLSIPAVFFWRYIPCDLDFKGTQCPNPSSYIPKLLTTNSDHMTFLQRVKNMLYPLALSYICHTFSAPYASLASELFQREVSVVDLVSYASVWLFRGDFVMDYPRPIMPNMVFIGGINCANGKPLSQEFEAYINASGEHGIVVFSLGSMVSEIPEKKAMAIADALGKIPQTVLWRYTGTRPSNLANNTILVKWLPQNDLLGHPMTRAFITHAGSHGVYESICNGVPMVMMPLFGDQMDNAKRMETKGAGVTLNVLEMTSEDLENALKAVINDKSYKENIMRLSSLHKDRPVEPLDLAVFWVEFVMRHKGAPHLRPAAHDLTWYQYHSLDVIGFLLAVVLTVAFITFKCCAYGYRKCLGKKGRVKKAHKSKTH
Method: The ratio was calculated based on the eq.

UGT1A1 [1] = target: T2, UGT1A1 (Homo sapiens, UniProt P22309); conditions: SN-38 substrate
T2 sequence (P22309 26-533): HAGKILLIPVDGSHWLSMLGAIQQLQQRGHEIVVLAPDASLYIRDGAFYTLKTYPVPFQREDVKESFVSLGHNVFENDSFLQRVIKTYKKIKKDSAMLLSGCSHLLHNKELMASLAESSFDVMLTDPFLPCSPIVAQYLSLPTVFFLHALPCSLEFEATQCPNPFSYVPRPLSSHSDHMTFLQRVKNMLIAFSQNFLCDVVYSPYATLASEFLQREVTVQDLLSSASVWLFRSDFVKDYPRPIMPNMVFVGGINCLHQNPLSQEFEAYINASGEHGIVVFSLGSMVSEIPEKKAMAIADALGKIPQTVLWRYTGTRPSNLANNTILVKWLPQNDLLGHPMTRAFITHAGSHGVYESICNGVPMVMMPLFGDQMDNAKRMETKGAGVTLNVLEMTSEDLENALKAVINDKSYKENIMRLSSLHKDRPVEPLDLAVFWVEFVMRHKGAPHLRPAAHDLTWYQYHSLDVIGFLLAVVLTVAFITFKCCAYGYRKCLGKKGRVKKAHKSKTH
Method: SN-38 glucuronidation activity was determined with a slight modification of a previously published method[13].

UGT1A1 [2] = target: T2, UGT1A1; conditions: fm is 1; clinical doses
[3] = clinical study; ref [16]; cited from earlier work
UGT1A9 = target: T3, UGT1A9 (Homo sapiens, UniProt O60656); conditions: 4-MU substrate
T3 sequence (O60656 26-530): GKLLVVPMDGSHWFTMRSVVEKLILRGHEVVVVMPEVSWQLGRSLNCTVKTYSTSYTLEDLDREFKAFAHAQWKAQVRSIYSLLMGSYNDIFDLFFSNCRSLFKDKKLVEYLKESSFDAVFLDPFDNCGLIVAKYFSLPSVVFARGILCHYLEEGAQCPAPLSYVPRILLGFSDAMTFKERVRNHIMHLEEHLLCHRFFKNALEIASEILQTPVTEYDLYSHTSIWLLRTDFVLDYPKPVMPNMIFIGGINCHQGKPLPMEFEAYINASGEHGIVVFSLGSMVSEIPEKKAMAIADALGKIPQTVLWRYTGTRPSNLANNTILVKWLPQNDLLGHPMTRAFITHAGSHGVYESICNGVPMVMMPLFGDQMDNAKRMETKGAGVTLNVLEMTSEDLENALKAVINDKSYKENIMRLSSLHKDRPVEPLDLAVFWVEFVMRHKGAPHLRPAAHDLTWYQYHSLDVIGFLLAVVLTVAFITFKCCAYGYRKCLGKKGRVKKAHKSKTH

**Q.** Which “Predicted AUCi/AUC ratio of UGT1A4 substrates” value (UGT1A4) does the source give for CNC(=O)c1ccccc1Sc1ccc2c(/C=C/c3ccccn3)n[nH]c2c1 [Axitinib, axitinib] here?
**A.** The value was about 1.

**Q.** With CS(=O)(=O)CCNCc1ccc(-c2ccc3ncnc(Nc4ccc(OCc5cccc(F)c5)c(Cl)c4)c3c2)o1 [Lapatinib, lapatinib] as the compound, how does the “inhibition type, UGT1A1” value (UGT1A1 [1]) read?
**A.** Its value is “non-competitive”.

**Q.** What about the “Predicted increase in AUC of UGT1A1 substrates (4-MU and SN-38)” value (UGT1A1 [2]) of the same compound?
**A.** Its value is ~ 25%.

**Q.** What about the “Increase in the AUC of SN-38 on co-administration with irinotecan” value [3] of the same compound?
**A.** The value was 41% and ~ 40%.

**Q.** With COc1cc2c(Nc3ccc(Br)cc3F)ncnc2cc1OCC1CCN(C)CC1 [Vandetanib, vandetanib] as the compound, how does the “inhibition type, UGT1A9” value (UGT1A9) read?
**A.** Its value is “mixed”.
